Columns and labels:
[1] = biological target: T1, human HAQ isoform of STING (Homo sapiens, UniProt Q86WV6, G230A/H232R/R293Q/R71H); experiment: THP-1 STING Lucia ISG reporter cell line assay; format: cell-based; conditions: 24 h incubation, QUANTI-Luc luminescence; normalised to 40 μM ML RR-S2 CDA; read-out: EC50 THP-1 STING Lucia ISG cells
T1 construct: host or cells: THP-1 STING Lucia ISG cells
Description: (§1) THP-1 STING Lucia ISG cells (InvivoGen #thpl-isg) were cultured in RPMI-1640 containing 2 mM L-glutamine, 25 mM HEPES, 100 μg/mL Normocin (InvivoGen) and 10% heat-inactivated FBS. Cells were seeded at a density of 7×10^5 cells/mL, maintained at 37° C./5% CO2, and passaged every 3-4 days. Selection pressure was maintained by the addition of 100 μg/mL Zeocin every second passage.
(§2) Assay conditions: cells were harvested and resuspended at a concentration of 5×10^5 cells/mL in fresh growth media. Of this cell preparation 20 μL per well was dispensed into 384 well cell culture plates (Greiner, #781098X) and incubated at 37° C./5% CO2 for 2 hours.
(§3) Concentration Response Curves (commonly 11 doses) were prepared by 2.5 fold serial dilution starting from 10 mM compound stock solution in DMSO. Compound dilutions were transferred into the cell culture plates using a pintool (0.1 μL transfer), control wells were matched for DMSO. Positive control wells received ML RR-S2 CDA (Med Chem Express HY12885B) in 5 μL of media to a final concentration of 40 μM. All other wells received additional 5 μL of media only to equalise volume. The plates were incubated for 24 h at 37° C./5% CO2.
(§4) For the detection step, QUANTI-Luc (InvivoGen #rep-qlc1) was prepared according to manufacturer's instruction and 10 μL were added per well to the culture plates. Plates were shaken for ten seconds on an orbital shaker and left in the dark at room temperature for two minutes, before luminescence was read on a Perkin Elmer Envision plate reader.
(§5) Data analysis: Luminescence raw data was normalised % activity relative to the signal of the positive control wells and negative control wells which were not treated with compound. The following formula was used to calculate normalised % activity from raw signals: % activity=(sample−negative)/(positive−negative)
(§6) The THP-1 STING Lucia ISG cell EC50 provides an assessment of activity at the human HAQ isoform of STING. For assessing compound activity against the WT human STING isoform, an equivalent method was conducted where the cells used were THP-1-Dual KI-hSTING-R232 (InvivoGen #thpd-r232).

WT human STING isoform = biological target: T2, WT human STING isoform (Homo sapiens, UniProt Q86WV6, H232R); experiment: THP-1-Dual KI-hSTING-R232 reporter cell line assay; format: cell-based; conditions: 24 h incubation, QUANTI-Luc luminescence; normalised to 40 μM ML RR-S2 CDA; read-out: EC50 THP-1 Dual KI-hSTING-R232 cells
T2 construct: host or cells: THP-1-Dual KI-hSTING-R232
Description: as §1, §2, §3, §4, §5, §6

huSTING (HAQ) = biological target: T3, huSTING (HAQ) (Homo sapiens, UniProt Q86WV6, G230A/H232R/R293Q); experiment: Surface Plasmon Resonance (SPR) STING (HAQ); format: binding; conditions: biotinylated STING on streptavidin chip, 8° C.; 50% occupancy as surrogate KD
T3 construct: made in house; host or cells: E. coli BL21 DE3
Source text: (§7) To determine binding affinities (50% occupancy as a surrogate Ko for the two binding events occurring) from dose-response experiments, binding responses at equilibrium were fit to a Hill equation, where the Hill coefficient was floated (52). For single-cycle kinetic experiments, sensorgrams were fit to a two-step kinetic model in which two analyte molecules bind sequentially (Biacore T200 or S200 Evaluation Software).

huSTING (WT) = biological target: T4, huSTING (WT) (Homo sapiens, UniProt Q86WV6, H232R); experiment: Surface Plasmon Resonance (SPR) STING (WT); format: binding; conditions: biotinylated STING on streptavidin chip, 8° C.; 50% occupancy as surrogate KD
T4 construct: made in house; host or cells: E. coli BL21 DE3
Source text: as §7

T2 sequence (Q86WV6 whole entry H232R, canonical isoform): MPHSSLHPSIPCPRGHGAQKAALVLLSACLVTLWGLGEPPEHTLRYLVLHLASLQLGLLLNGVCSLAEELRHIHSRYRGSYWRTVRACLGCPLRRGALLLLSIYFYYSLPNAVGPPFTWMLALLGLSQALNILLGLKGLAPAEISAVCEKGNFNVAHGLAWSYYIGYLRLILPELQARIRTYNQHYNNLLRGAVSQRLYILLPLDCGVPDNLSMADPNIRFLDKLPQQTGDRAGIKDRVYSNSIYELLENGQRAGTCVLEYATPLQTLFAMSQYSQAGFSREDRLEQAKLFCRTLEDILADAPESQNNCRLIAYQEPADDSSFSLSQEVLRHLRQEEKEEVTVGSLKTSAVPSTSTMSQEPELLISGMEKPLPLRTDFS
T4 sequence (Q86WV6 with tags, fused parts or gaps H232R): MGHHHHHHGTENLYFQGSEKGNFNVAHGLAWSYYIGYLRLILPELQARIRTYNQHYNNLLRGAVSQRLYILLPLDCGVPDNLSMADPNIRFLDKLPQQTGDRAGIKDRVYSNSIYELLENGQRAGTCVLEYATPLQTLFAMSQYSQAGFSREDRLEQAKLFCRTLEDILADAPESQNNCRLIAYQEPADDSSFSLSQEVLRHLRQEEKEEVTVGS
T3 sequence (Q86WV6 with tags, fused parts or gaps G230A/H232R/R293Q): as the sequence (Q86WV6 with tags, fused parts or gaps H232R) above, with G100A, R163Q counted along it
T1 sequence (Q86WV6 whole entry R71H/G230A/H232R/R293Q, canonical isoform): as the sequence (Q86WV6 whole entry H232R, canonical isoform) above, with R71H, G230A, R293Q counted along it

Row | SMILES | EC50 [1] [nM] | EC50 (WT human STING isoform) [nM] | Kd (huSTING (HAQ)) [nM] | Kd (huSTING (WT)) [nM]
1 | CCOC(=O)c1sc2c(F)ccc(Cl)c2c1-c1nc2c(OC)c(C(N)=O)cc(Cl)c2[nH]1 [Example 18, Ethyl 3-(5-carbamoyl-7-chloro-4-methoxy-1H-benzo[d]imidazol-2-yl)-4-chloro-7-fluorobenzo[b]thiophene-2-carboxylate] | 1830 | 2270 |  | 
2 | NC(=O)c1ccc2[nH]c(-c3c(C(=O)O)sc4cccc(Cl)c34)nc2c1Cl [Example 13, 3-(5-Carbamoyl-4-chloro-1H-benzo[d]imidazol-2-yl)-4-chlorobenzo[b]thiophene-2-carboxylic acid] | 6100 | 4380 | 33300 | 
3 | COc1c(C(N)=O)ccc2nc(-c3c(C(=O)O)sc4cccc(Cl)c34)[nH]c12 [Example 9, 3-(6-Carbamoyl-7-methoxy-1H-benzo[d]imidazol-2-yl)-4-chlorobenzo[b]thiophene-2-carboxylic acid] | 2460 | 4670 | 3100 | 51000
4 | NC(=O)c1ccc2[nH]c(-c3c(C(=O)O)sc4cccc(Cl)c34)nc2c1 [Example 2, 3-(5-Carbamoyl-1H-benzo[d]imidazol-2-yl)-4-chlorobenzo[b]thiophene-2-carboxylic acid] | 23900 | > 40000 | 42000 | 
5 | CCOc1c(C(N)=O)ccc2nc(-c3c(C(=O)O)sc4c(F)ccc(Br)c34)[nH]c12 [Example 15, 4-Bromo-3-(6-carbamoyl-7-ethoxy-1H-benzo[d]imidazol-2-yl)-7-fluorobenzo[b]thiophene-2-carboxylic acid] | > 40000 | > 40000 | 55700 | 
6 | COc1c(C(N)=O)cc(F)c2[nH]c(-c3c(C(=O)O)sc4c(F)ccc(Cl)c34)nc12 [Example 21, 3-(5-Carbamoyl-7-fluoro-4-methoxy-1H-benzo[d]imidazol-2-yl)-4-chloro-7-fluorobenzo[b]thiophene-2-carboxylic acid] | 3590 | 4930 |  | 
7 | NC(=O)c1ccc2[nH]c(-c3c(C(=O)O)sc4c(F)ccc(Br)c34)nc2c1 [Example 8, 4-Bromo-3-(5-carbamoyl-1H-benzo[d]imidazol-2-yl)-7-fluorobenzo[b]thiophene-2-carboxylic acid] | 18300 | 16400 | 6700 | 91000
8 | COc1c(C(N)=O)ccc2[nH]c(-c3c(C(=O)O)sc4cccc(OC)c34)nc12 [Example 22, 3-(5-Carbamoyl-4-methoxy-1H-benzo[d]imidazol-2-yl)-4-methoxybenzo[b]thiophene-2-carboxylic acid] | 9360 | 9040 |  | 
9 | CCOC(=O)c1sc2cccc(Cl)c2c1-c1nc2ccc(C(N)=O)cc2n1C (single isomer, unassigned) [Example 5.2, Ethyl 3-(6-carbamoyl-1-methyl-1H-benzo[d]imidazol-2-yl)-4-chlorobenzo[b]thiophene-2-carboxylate] | 2510 | 29400 |  | 
10 | COc1c(C(N)=O)ccc2[nH]c(-c3c(C(=O)O)sc4c(Br)cnc(OC)c34)nc12 [Example 17, 7-Bromo-3-(5-carbamoyl-4-methoxy-1H-benzo[d]imidazol-2-yl)-4-methoxythieno[3,2-c]pyridine-2-carboxylic acid] | > 40000 | > 40000 | 3600 | 19100
11 | CCOC(=O)c1sc2cccc(Cl)c2c1-c1nc2cc(C(N)=O)ccc2n1C (single isomer, unassigned) [Example 5.1, Ethyl 3-(5-Carbamoyl-1-methyl-1H-benzo[d]imidazol-2-yl)-4-chlorobenzo[b]thiophene-2-carboxylate] | 8270 | 20100 |  | 

The next compounds have a lower EC50 [1] than those just listed; values first:

Row | EC50 [1] [nM] | EC50 (WT human STING isoform) [nM] | Kd (huSTING (HAQ)) [nM] | Kd (huSTING (WT)) [nM] | SMILES
12 | 1550 | 2730 |  |  | CCOC(=O)c1sc2c(Br)cnc(OC)c2c1-c1nc2c(OC)c(C(N)=O)ccc2[nH]1 [Example 16, Ethyl 7-bromo-3-(5-carbamoyl-4-methoxy-1H-benzo[d]imidazol-2-yl)-4-methoxythieno[3,2-c]pyridine-2-carboxylate]
13 | 651 | 1040 | 140 | 1450 | COc1c(C(N)=O)ccc2nc(-c3c(C(=O)O)sc4c(F)ccc(Br)c34)[nH]c12 [Example 11, 4-Bromo-3-(6-carbamoyl-7-methoxy-1H-benzo[d]imidazol-2-yl)-7-fluorobenzo[b]thiophene-2-carboxylic acid]
14 | 576 | 2720 |  |  | CCOC(=O)c1sc2c(F)ccc(Br)c2c1-c1nc2ccc(C(N)=O)c(OCC)c2[nH]1 [Example 14, Ethyl 4-bromo-3-(6-carbamoyl-7-ethoxy-1H-benzo[d]imidazol-2-yl)-7-fluorobenzo[b]thiophene-2-carboxylate]
15 | 574 | 7070 |  |  | CCOC(=O)c1sc2cccc(Cl)c2c1-c1nc2cc(C(N)=O)ccc2[nH]1 [Example 1, Ethyl 3-(5-carbamoyl-1H-benzo[d]imidazol-2-yl)-4-chlorobenzo[b]thiophene-2-carboxylate]
16 | 455 | 2580 |  |  | CCOC(=O)c1sc2cccc(Cl)c2c1-c1nc2cc(C(N)=O)cc(F)c2[nH]1 [Example 3, Ethyl 3-(5-carbamoyl-7-fluoro-1H-benzo[d]imidazol-2-yl)-4-chlorobenzo[b]thiophene-2-carboxylate]
17 | 441 | 2120 |  |  | CCOC(=O)c1sc2c(F)ccc(Br)c2c1-c1nc2cc(C(N)=O)ccc2[nH]1 [Example 7, Ethyl 4-bromo-3-(5-carbamoyl-1H-benzo[d]imidazol-2-yl)-7-fluorobenzo[b]thiophene-2-carboxylate]
18 | 122 | 131 |  |  | CCOC(=O)c1sc2c(F)ccc(Cl)c2c1-c1nc2c(OC)c(C(N)=O)ccc2[nH]1 [Example 20, Ethyl 3-(5-carbamoyl-4-methoxy-1H-benzo[d]imidazol-2-yl)-4-chloro-7-fluorobenzo[b]thiophene-2-carboxylate]
19 | 115 | 119 |  |  | CCOC(=O)c1sc2c(F)ccc(Cl)c2c1-c1nc2c(OC)c(C(N)=O)cc(F)c2[nH]1 [Example 23, Ethyl 3-(5-carbamoyl-7-fluoro-4-methoxy-1H-benzo[d]imidazol-2-yl)-4-chloro-7-fluorobenzo[b]thiophene-2-carboxylate]
20 | 43 | 121 |  |  | CCOC(=O)c1sc2c(F)ccc(Br)c2c1-c1nc2ccc(C(N)=O)c(OC)c2[nH]1 [Example 10, Ethyl 4-bromo-3-(6-carbamoyl-7-methoxy-1H-benzo[d]imidazol-2-yl)-7-fluorobenzo[b]thiophene-2-carboxylate]
21 | 28 | 82 |  |  | CCOC(=O)c1sc2cccc(OC)c2c1-c1nc2c(OC)c(C(N)=O)ccc2[nH]1 [Example 19, Ethyl 3-(5-carbamoyl-4-methoxy-1H-benzo[d]imidazol-2-yl)-4-methoxybenzo[b]thiophene-2-carboxylate]
22 | 12 | 24 |  |  | CCOC(=O)c1sc2cccc(Cl)c2c1-c1nc2c(Cl)c(C(N)=O)ccc2[nH]1 [Example 12, Ethyl 3-(5-carbamoyl-4-chloro-1H-benzo[d]imidazol-2-yl)-4-chlorobenzo[b]thiophene-2-carboxylate]
23 | 4.1 | 57 |  |  | CCOC(=O)c1sc2cccc(Cl)c2c1-c1nc2ccc(C(N)=O)c(OC)c2[nH]1 [Example 4, Ethyl 3-(6-carbamoyl-7-methoxy-1H-benzo[d]imidazol-2-yl)-4-chlorobenzo[b]thiophene-2-carboxylate]
